Common to all, as to type: in vivo, rat
One data set relates to Sprague Dawley rats. Description: IR (30 minutes ischemia) infarct size, single IV therapy 15 min before reperfusion. As to the method: Lateral thoracotamy with 30 minutes ischemia>reperfusion was performed a treated per the groups above 15 min before reperfusion IV in the femoral artery. Animals were humanely sacrificed and the hearts were then section and stained to examine tissue injury.

The subject of data set [1] is Sprague-Dawley rats. The data set is described as follows: Hemodynamics in normal, sham and IR rats (Example 1). As to the method: (§1) Adult male Sprague-Dawley rats (Harlan, Indianapolis, Ind.) weighing ˜250 g were used. Epicatechin (1 mg/kg/day; Sigma-Aldrich, St. Louis, Mo.) or vehicle (water) was administered orally by gavage once/day beginning 10 days before thoracotomy and continuing until the time of the terminal study (48 h or 3 weeks). A subgroup of “normal” animals were treated with water or epicatechin for 10 day and were used to evaluate the effects of epicatechin on hemodynamics. For 48 hr studies the groups included IR and IR+10 day epicatechin. For 3 week studies, the groups included sham, sham+10 day epicatechin, IR and IR+10 day epicatechin.
(§2) Hemodynamics: All animals were weighed and anesthetized with 5% isoflurane (maintenance at 1-2%). Arterial (carotid) and LV pressures were measured using a micromanometer just prior to sacrifice and data digitally recorded.
Hemodynamics: Hemodynamics (Table 1A) were measured in normal and normal+10 d epicatechin. […] Values shown are mean ±SEM. Statistical analysis was done by ANOVA except where denoted. In the IR group the rats are fed the control and ischemia is induced (by temporary occlusion of the coronary artery). In the IR+epicatechin the rats are given epicatechin and ischemia is induced. […] The purpose of these two groups was to determine baseline hemodynamics.

For data set [2], the system named is Sprague-Dawley rats. The data set is described as follows: Ischemia-reperfusion (45 min coronary ligation) infarct size, oral epicatechin pre-treatment (Example 1). The conditions noted are these: for infarct area: epicatechin 1 mg/kg/day oral. As to the method: as §1
Ischemia-reperfusion: Animals were anesthetized by intraperitoneal injection of ketamine (100 mg/kg) and xylazine (10 mg/kg), intubated, and positive-pressure ventilated. Following a left thoracotomy, the left anterior descending coronary artery was ligated for 45 min, (except in shams) released and the suture left in place. The chest was closed and animals allowed to fully recover. Successful occlusion and reperfusion were verified by visual inspection of left ventricle (LV) color. Sham animals were treated identically, except the ligature was not tightened.
Determination of Infarct Size: Terminal study hearts were excised and weighed. In 48 h hearts, the area at risk was determined by the reocclusion of the snare and infusion of trypan blue (0.4%) into the cannulated aorta. Hearts were sectioned at 0 mmHg into five 2 mm rings and stained using triphenyltetrazolium chloride to determine the infarct area. Computer assisted image analysis was used using blinded operators. For 3 week studies hearts were processed as above and sectioned to identify the infarct (i.e. scar) area. The images of unfixed, stained rings were also used to measure internal and external chamber diameters, anterior and septal wall thicknesses.
Statistical Analysis Comparisons between means±S.E.M were analyzed by student's t-tests or one-way ANOVA followed by Bonferroni post-hoc. P<0.05 was considered statistically significant. The investigator who analyzed the data was blinded to what group (control vs. treatment with epicatechin) the animal belonged to.

Data set [3] relates to Sprague-Dawley rats. The data set is described as follows: Cardiac morphometry 3 weeks after IR (Example 1). The following applies: epicatechin. As to the method:
Adult male Sprague-Dawley rats (Harlan, Indianapolis, Ind.) weighing ˜250 g were used. […] Sigma-Aldrich, St. Louis, Mo.) or vehicle (water) was administered orally by gavage once/day beginning 10 days before thoracotomy and continuing until the time of the terminal study (48 h or 3 weeks). A subgroup of “normal” animals were treated with water or epicatechin for 10 day and were used to evaluate the effects of epicatechin on hemodynamics. […] Determination of Infarct Size: Terminal study hearts were excised and weighed. In 48 h hearts, the area at risk was determined by the reocclusion of the snare and infusion of trypan blue (0.4%) into the cannulated aorta. […] Computer assisted image analysis was used using blinded operators. For 3 week studies hearts were processed as above and sectioned to identify the infarct (i.e. scar) area. The images of unfixed, stained rings were also used to measure internal and external chamber diameters, anterior and septal wall thicknesses.

The subject of data set [4] is Sprague-Dawley rats. Description: Cardiac morphometry after permanent coronary occlusion (Example 2). The following applies: epicatechin. As to the method: (§3) Determination of Infarct Size: Terminal study hearts were excised and weighed. In 48 h hearts, the area at risk was determined by the reocclusion of the snare and infusion of trypan blue (0.4%) into the cannulated aorta. […] Computer assisted image analysis was used using blinded operators. For 3 week studies hearts were processed as above and sectioned to identify the infarct (i.e. scar) area. The images of unfixed, stained rings were also used to measure internal and external chamber diameters, anterior and septal wall thicknesses. Adult male Sprague-Dawley rats (Harlan, Indianapolis, Ind.) weighing ˜250 g were used. […] Sigma-Aldrich, St. Louis, Mo.) or vehicle (water) was administered orally by gavage once/day beginning 10 days before thoracotomy and continuing until the time of the terminal study (48 h or 3 weeks). Thoracotomy was performed at day 10. In the sham group, the chest was only opened and closed; no artery was permanently occluded. For the infarct group, the left anterior descending coronary artery was permanently occluded. In the 48 hour treatment arm, the animals were allowed to heal with treatment of epicatechin at 1 mg/kg/day continued for 48 hours. At 48 hours the animals were anesthetized and hemodynamics recorded. The heart was excised and for infarcted animals only the infarct size and heart structure (morphometry) were determined. In the 3 week treatment arm, the animals were allowed to heal for 3 weeks with daily treatment of epicatechin at 1 mg/kg/day. At 3 weeks the animals were anesthetized and hemodynamics recorded. The heart was excised and for infarcted animals only the infarct size and heart structure (morphometry) were determined.

Data set [5] has as its system Sprague-Dawley rats. Description: Hemodynamics after permanent coronary occlusion (Example 2). The conditions noted are these: for LVEDP / LVPSP / MAP: epicatechin; for HR: epicatechin 1 mg/kg/day. As to the method:
as §2
Adult male Sprague-Dawley rats (Harlan, Indianapolis, Ind.) weighing ˜250 g were used. Epicatechin (1 mg/kg/day; Sigma-Aldrich, St. Louis, Mo.) or vehicle (water) was administered orally by gavage once/day beginning 10 days before thoracotomy and continuing until the time of the terminal study (48 h or 3 weeks). Thoracotomy was performed at day 10. In the sham group, the chest was only opened and closed; no artery was permanently occluded. For the infarct group, the left anterior descending coronary artery was permanently occluded. In the 48 hour treatment arm, the animals were allowed to heal with treatment of epicatechin at 1 mg/kg/day continued for 48 hours. At 48 hours the animals were anesthetized and hemodynamics recorded. The heart was excised and for infarcted animals only the infarct size and heart structure (morphometry) were determined. In the 3 week treatment arm, the animals were allowed to heal for 3 weeks with daily treatment of epicatechin at 1 mg/kg/day. At 3 weeks the animals were anesthetized and hemodynamics recorded. The heart was excised and for infarcted animals only the infarct size and heart structure (morphometry) were determined.
Methods of determining infarct size, hemodynamics, tissue collection statistical analysis is as described in Example 1.

In data set [6] the test system is Sprague-Dawley rats. Description: Permanent coronary occlusion infarct size (Example 2). The conditions noted are these: epicatechin 1 mg/kg/day oral. As to the method:
as §3, with “For the infarct group, the left anterior descending coronary artery was permanently occluded. In the 48 hour treatment arm, the animals were allowed to heal with treatment of epicatechin at 1 mg/kg/day continued for 48 hours.” left out, “In the 3 week treatment arm, the animals were allowed to heal for 3 weeks with daily treatment of epicatechin at 1 mg/kg/day.” left out

Where [7] appears, read: 48 h IR, 10 d epicatechin pretreatment.

With `C[C@H]1c2cccc(O)c2C(O)=C2C(=O)[C@]3(O)C(O)=C(C(N)=O)C(=O)[C@@H](N(C)C)[C@@H]3[C@@H](O)[C@@H]21` [DOX, doxycycline], the “reduction of IR induced infarct size” value in the data set on Sprague Dawley rats (at 4 hours, IV 5 mg/kg) is on record as ~10%.
Turning to `Oc1cc(O)c2c(c1)O[C@H](c1ccc(O)c(O)c1)[C@H](O)C2` [epicatechin], the “HR (heart rate)” value with Sprague-Dawley rats [1] (3 wk IR, epicatechin) was 302 ±18^ bpm; with Sprague-Dawley rats [1] (48 h IR, 10 d epicatechin pretreatment, mean ± SEM), 373 ± 17 bpm; with Sprague-Dawley rats [1] (normal rats, 10 d epicatechin 1 mg/kg/day oral, mean ± SEM) it was 346 ± 8 bpm; in the data set on Sprague-Dawley rats [1] (sham, 3 wk study, epicatechin), 328 ± 11 bpm. The LVEDP with Sprague-Dawley rats [1] (3 wk IR, epicatechin) is 5.5 ± 1.5 mmHg; with Sprague-Dawley rats [1] (sham, 3 wk study, epicatechin), 2.6 ± 0.2 mmHg; in the data set with Sprague-Dawley rats [5] (PCO 3 week) it was 11 ± 1 mmHg; with Sprague-Dawley rats [5] (PCO 48 h) it was 5.8 ± 1.2 mmHg; with Sprague-Dawley rats [5] (sham, 3 weeks), 6.4 ± 0.9 mmHg; in the data set on Sprague-Dawley rats [5] (sham, 48 h), 4.3 ± 1.2 mmHg. The LVPSP is reported as 108 ± 4 mmHg with Sprague-Dawley rats [1] (3 wk IR, epicatechin); 116 ± 6.2 mmHg with Sprague-Dawley rats [1] (sham, 3 wk study, epicatechin); 102 ± 3 mmHg in the data set on Sprague-Dawley rats [5] (PCO 3 week); 107 ± 4 mmHg with Sprague-Dawley rats [5] (PCO 48 h); 118 ± 4 mmHg in the data set with Sprague-Dawley rats [5] (sham, 3 weeks); 102 ± 2 mmHg in the data set on Sprague-Dawley rats [5] (sham, 48 h). Moreover, the MAP came out at 85 ± 4 mmHg in the data set on Sprague-Dawley rats [1] (3 wk IR, epicatechin); 92 ± 11 mmHg in the data set on Sprague-Dawley rats [1] (sham, 3 wk study, epicatechin); 82 ± 2 mmHg with Sprague-Dawley rats [5] (PCO 3 week); 91 ± 5 mmHg in the data set on Sprague-Dawley rats [5] (PCO 48 h); 92 ± 4 mmHg with Sprague-Dawley rats [5] (sham, 3 weeks); 83 ± 2 mmHg in the data set on Sprague-Dawley rats [5] (sham, 48 h). Further, the “LVEDP (left ventricular end diastolic pressure)” value is 4.9 ± 0.5 mmHg in the data set with Sprague-Dawley rats [1] (setting [7]) and 6.7 ± 1.3 mmHg in the data set with Sprague-Dawley rats [1] (normal rats, 10 d epicatechin). Also, the “LVPSP (left ventricular peak systolic pressure)” value is listed as 110 ± 5 mmHg in the data set with Sprague-Dawley rats [1] (setting [7]) and 112 ± 14 mmHg in the data set on Sprague-Dawley rats [1] (normal rats, 10 d epicatechin). The “MAP (mean aortic pressure)” value was found to be 90 ± 5 mm Hg in the data set on Sprague-Dawley rats [1] (setting [7]) and 99 ± 10 mm Hg in the data set with Sprague-Dawley rats [1] (normal rats, 10 d epicatechin). In the data set on Sprague-Dawley rats [1] (ten days of treatment in noninfarcted animals), the blood pressure result is on record as “did not reduce blood pressure”. Besides, the infarct area in the data set on Sprague-Dawley rats [2] (3 weeks after IR, control 50.4±5.6%, p=0.05) is on record as 33.7±5.5%; in the data set on Sprague-Dawley rats [2] (48 h after IR, 10 day pre-treatment, control 51.4±1.8%, P<0.0001), 26.3±3.4%. In addition, the “reduction in scar size” value with Sprague-Dawley rats [2] (3 weeks post-IR) is recorded as ~33%. For the same molecule, the “reduction in infarct size” value with Sprague-Dawley rats [2] (temporary occlusion experiment, FIG. 1, vs vehicle) is listed as ~50%. In addition, the AW thickness with Sprague-Dawley rats [3] (3 wk IR) worked out at 0.41 ± 0.02 mm; with Sprague-Dawley rats [3] (sham, 3 wk study), 0.53 ± 0.05 mm; in the data set with Sprague-Dawley rats [4] (PCO 3 week), 0.446 ± 0.04 mm; in the data set with Sprague-Dawley rats [4] (PCO 48 h), 0.57 ± 0.03 mm; with Sprague-Dawley rats [4] (sham, 3 weeks), 0.58 ± 0.05 mm; in the data set on Sprague-Dawley rats [4] (sham, 48 h), 0.54 ± 0.05 mm. Also, the “HW/BW (heart weight/body weight)” value in the data set with Sprague-Dawley rats [3] (3 wk IR) is 4.5 ± 0.2; in the data set with Sprague-Dawley rats [3] (sham, 3 wk study) it was 3.2 ± 0.5. Also, the “Inner LV diam.” value came out at 0.55 ± 0.05 mm with Sprague-Dawley rats [3] (3 wk IR); 0.52 ± 0.08 mm with Sprague-Dawley rats [3] (sham, 3 wk study); 0.546 ± 0.046 mm in the data set with Sprague-Dawley rats [4] (PCO 3 week); 0.490 ± 0.046 mm in the data set with Sprague-Dawley rats [4] (sham, 3 weeks). Further, the “Outer LV diam.” value in the data set with Sprague-Dawley rats [3] (3 wk IR) was 1.6 ± 0.04 mm; in the data set on Sprague-Dawley rats [3] (sham, 3 wk study), 1.6 ± 0.1 mm; with Sprague-Dawley rats [4] (PCO 3 week) it was 1.495 ± 0.031 mm; with Sprague-Dawley rats [4] (sham, 3 weeks) it was 1.469 ± 0.075 mm. Also, the SW thickness in the data set with Sprague-Dawley rats [3] (3 wk IR) is reported as 0.49 ± 0.03 mm; in the data set on Sprague-Dawley rats [3] (sham, 3 wk study) it was 0.47 ± 0.04 mm; with Sprague-Dawley rats [4] (PCO 3 week), 0.475 ± 0.02 mm; in the data set with Sprague-Dawley rats [4] (PCO 48 h), 0.57 ± 0.02 mm; with Sprague-Dawley rats [4] (sham, 3 weeks) it was 0.38 ± 0.04 mm; in the data set with Sprague-Dawley rats [4] (sham, 48 h), 0.33 ± 0.06 mm. In addition, the HW/BW with Sprague-Dawley rats [4] (PCO 3 week) worked out at 4.4 ± 0.7; with Sprague-Dawley rats [4] (sham, 3 weeks), 3.82 ± 0.3. For the same molecule, the HR is on record as 268 ± 10 bpm in the data set on Sprague-Dawley rats [5] (PCO 3 week); 342 ± 8 bpm in the data set with Sprague-Dawley rats [5] (PCO 48 h); 303 ± 10 bpm with Sprague-Dawley rats [5] (sham, 3 weeks after thoracotomy); 334 ± 10 bpm in the data set on Sprague-Dawley rats [5] (sham, 48 h after thoracotomy). The “reduction of infarct size” value in the data set with Sprague-Dawley rats [6] (3 weeks after infarction (permanent occlusion), FIG. 9a) worked out at 33%; in the data set on Sprague-Dawley rats [6] (48 h after permanent coronary occlusion, FIG. 8), 50%. Moreover, the “reduction of IR induced infarct size” value in the data set with Sprague Dawley rats (at 48 h, IV 10 mg/kg) came out at 36%.
On to catechin, for which, in the data set on Sprague Dawley rats (methods of Example 5, FIG. 16), the area at risk entry is recorded as “no effect” and the infarction size result is “no effect”.

For the origin of these results see patent US8648059B2, “Use of epicatechin and derivatives and salts thereof for cardiac protection of ischemic myocardium and to ameliorate adverse cardiac remodeling” (The Regents of the University of California, priority 2008, dated 2014).
